# Assay: Electrophysiological Assay: Current record was obtained by an automated patch clamp system “IonWorks Quattro (Molecular Devices Corporation)” in Population Patch Clamp mode. The operation was conducted in accordance with the operating procedure of the system. A Dulbecco's phosphate buffer containing calcium and magnesium (Sigma) was used as an extracellular fluid, and a low C1-buffer (100 mM K-gluconate, 40 mM KCl, 3.2 mM MgCl2, 5 mM EGTA, 5 mM Hepes, pH 7.3) was used as an intracellular fluid. A test compound was dissolved in dimethylsulfoxide (DMSO) to prepare a 30 mM stock solution, so as to produce 4-fold serial dilutions with the extracellular fluid for attaining a DMSO concentration of 0.3% in measurement.The hNav 1.7/β1/β2 cells cultured to a 70-80% confluent state in a T150 flask (Sumilon) were washed with PBS and subsequently with versene (Invitrogen Corp.), and collected by allowing to react with 0.05% trypsin (Invitrogen Corp.) at 37° C. for 3 minutes. After washing with a culture medium, the resultant cells were suspended in an extracellular fluid at a concentration of […] so as to be used for the measurement. The cell membrane was perforated by using an intracellular fluid including 100 μg/ml amphotericin B (Sigma).
# Format: cell-based
compound,measurement,value
Cn1nccc1[C@H]1CCC[C@@H]1Oc1cc(F)c(S(=O)(=O)Nc2nncs2)cc1Cl (relative stereo),IC50,280 nM

# Source: ChEMBL document CHEMBL5726679, “Cycloalkane derivatives” (2017)
